Several values for one entry are separate records, joined by “and”; a condition that tells them apart may be missing. Identical values can stand only once. Inconclusive results and toxic doses are left out.
System: P388 leukemia ip, CD2F1 mice, survival T/C
Assay: NCI In Vivo Anticancer Drug Screen. Data for tumor model P388 Leukemia (intraperitoneal) in CD2F1 (CDF1) mice
Details: endpoint: median survival time, higher = longer survival
Method in brief: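 Mice carrying the transplanted tumor received test compound or vehicle. Survival was recorded in each group, and the value is the treated-group measurement divided by that of the vehicle-treated control group.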

[1] = dose: 25.0 mg/kg/injection, schedule: Q01DX009 (ip), vehicle: saline with Tween-80
[2] = dose: 50.0 mg/kg/injection, schedule: Q01DX009 (ip), vehicle: saline with Tween-80
[3] = dose: 60.0 mg/kg/injection, schedule: Q01DX005 (ip), vehicle: saline with Tween-80
[4] = dose: 120.0 mg/kg/injection, schedule: Q01DX005 (ip), vehicle: saline with Tween-80
[5] = dose: 100.0 mg/kg/injection, schedule: Q01DX009 (ip), vehicle: saline with Tween-80
[6] = dose: 50.0 mg/kg/injection, schedule: Q01DX009 (ip), vehicle: saline
[7] = dose: 100.0 mg/kg/injection, schedule: Q01DX009 (ip), vehicle: saline
[8] = dose: 240.0 mg/kg/injection, schedule: Q01DX005 (ip), vehicle: saline with Tween-80
[9] = dose: 100.0 mg/kg/injection, schedule: Q04DX003 (ip), vehicle: Klucel (hydroxypropylcellulose) (HPC)
[10] = dose: 100.0 mg/kg/injection, schedule: Q04DX003 (ip), vehicle: saline with Tween-80
[11] = dose: 200.0 mg/kg/injection, schedule: Q04DX003 (ip), vehicle: saline with Tween-80
[12] = dose: 400.0 mg/kg/injection, schedule: Q04DX003 (ip), vehicle: saline with Tween-80

## Nc1ccc(/C=C/c2cccc3cccnc23)cc1
dose: 12.5 mg/kg/injection, schedule: Q01DX009 (ip), vehicle: saline with Tween-80
  T/C: 96 % of control
[1]
  T/C: 96 % of control
[2]
  T/C: 93 % of control

## CCOC(=O)C1CCc2ccc(OC)c(OC)c2C1 (stereo unspecified)
dose: 12.5 mg/kg/injection, schedule: Q01DX009 (ip), vehicle: other
  T/C: 100 % of control
dose: 25.0 mg/kg/injection, schedule: Q01DX009 (ip), vehicle: other
  T/C: 97 % of control
dose: 50.0 mg/kg/injection, schedule: Q01DX009 (ip), vehicle: other
  T/C: 105 % of control
dose: 100.0 mg/kg/injection, schedule: Q01DX009 (ip), vehicle: other
  T/C: 100 % of control
dose: 200.0 mg/kg/injection, schedule: Q01DX009 (ip), vehicle: other
  T/C: 110 % of control

## CCOC(=O)Nc1cc2c(c(N)n1)N=C(c1ccccc1)CO2
dose: 25.0 mg/kg/injection, schedule: Q01DX005 (ip), vehicle: saline with Tween-80
  T/C: 102 % of control and 112 % of control

## CC(NCCN(C)C)C1CC2CCCCN2C1 (stereo unspecified)
[3]
  T/C: 104 % of control
[4]
  T/C: 97 % of control

## C=CCC1CCCCC1=O (stereo unspecified) (tested in a mixture with another compound)
[2]
  T/C: 105 % of control
[5]
  T/C: 104 % of control
dose: 200.0 mg/kg/injection, schedule: Q01DX009 (ip), vehicle: saline with Tween-80
  T/C: 115 % of control

## C=CCN1C(=O)CSC1=S
dose: 100.0 mg/kg/injection, schedule: Q01DX009 (ip), vehicle: Klucel (hydroxypropylcellulose) (HPC)
  T/C: 100 % of control
dose: 200.0 mg/kg/injection, schedule: Q01DX009 (ip), vehicle: Klucel (hydroxypropylcellulose) (HPC)
  T/C: 108 % of control
dose: 400.0 mg/kg/injection, schedule: Q01DX009 (ip), vehicle: Klucel (hydroxypropylcellulose) (HPC)
  T/C: 110 % of control

## COC(=O)C(CSCc1ccccc1)NC(=O)c1csc(CCNC(=O)c2ccccc2)n1 (stereo unspecified)
dose: 12.5 mg/kg/injection, schedule: Q01DX009 (ip), vehicle: DMSO
  T/C: 99 % of control
dose: 25.0 mg/kg/injection, schedule: Q01DX009 (ip), vehicle: DMSO
  T/C: 99 % of control
dose: 50.0 mg/kg/injection, schedule: Q01DX009 (ip), vehicle: DMSO
  T/C: 100 % of control
dose: 100.0 mg/kg/injection, schedule: Q01DX009 (ip), vehicle: DMSO
  T/C: 101 % of control
dose: 200.0 mg/kg/injection, schedule: Q01DX009 (ip), vehicle: DMSO
  T/C: 96 % of control

## CC1C(=O)OC23CC(C)(C)C4OC42C(C)CCC13O (stereo unspecified)
dose: 0.37 mg/kg/injection, schedule: Q01DX009 (ip), vehicle: saline
  T/C: 93 % of control
dose: 0.75 mg/kg/injection, schedule: Q01DX009 (ip), vehicle: saline
  T/C: 99 % of control
dose: 1.5 mg/kg/injection, schedule: Q01DX009 (ip), vehicle: saline
  T/C: 97 % of control
dose: 3.0 mg/kg/injection, schedule: Q01DX009 (ip), vehicle: saline
  T/C: 99 % of control

## O=C1C2=C(Nc3cc([N+](=O)[O-])ccc3N2)OC1c1ccccc1O (stereo unspecified)
dose: 30.0 mg/kg/injection, schedule: Q01DX005 (ip), vehicle: Klucel (hydroxypropylcellulose) (HPC)
  T/C: 106 % of control
dose: 60.0 mg/kg/injection, schedule: Q01DX005 (ip), vehicle: Klucel (hydroxypropylcellulose) (HPC)
  T/C: 103 % of control and 90 % of control
dose: 120.0 mg/kg/injection, schedule: Q01DX005 (ip), vehicle: Klucel (hydroxypropylcellulose) (HPC)
  T/C: 101 % of control
dose: 240.0 mg/kg/injection, schedule: Q01DX005 (ip), vehicle: Klucel (hydroxypropylcellulose) (HPC)
  T/C: 90 % of control

## ClC1COc2cc(c3ccccc3c2)-c2c(ccc3ccccc23)OCCOCCOc2ccc3ccccc3c2-c2c(ccc3ccccc23)OCC(Cl)O1 (stereo unspecified)
dose: 100.0 mg/kg/injection, schedule: Q04DX002 (ip), vehicle: saline with Tween-80
  T/C: 102 % of control
dose: 200.0 mg/kg/injection, schedule: Q04DX002 (ip), vehicle: saline with Tween-80
  T/C: 102 % of control
dose: 400.0 mg/kg/injection, schedule: Q04DX002 (ip), vehicle: saline with Tween-80
  T/C: 105 % of control

## CN(C)CCN(C(=O)C(O)(c1ccccc1)c1ccccc1)c1ccccc1
[6]
  T/C: 100 % of control
[7]
  T/C: 100 % of control
dose: 200.0 mg/kg/injection, schedule: Q01DX009 (ip), vehicle: saline
  T/C: 107 % of control

## O=C(N/N=C/c1ccc(C(F)(F)F)cc1)c1ccncc1
dose: 15.0 mg/kg/injection, schedule: Q01DX005 (ip), vehicle: saline with Tween-80
  T/C: 106 % of control
dose: 30.0 mg/kg/injection, schedule: Q01DX005 (ip), vehicle: saline with Tween-80
  T/C: 101 % of control
[3]
  T/C: 101 % of control and 97 % of control
[4]
  T/C: 100 % of control
[8]
  T/C: 100 % of control

## CCCCOC(=O)NC(=O)c1cc2cc(Br)cc(Br)c2oc1=O
[3]
  T/C: 94 % of control
[4]
  T/C: 101 % of control
[8]
  T/C: 92 % of control

## Cc1ccc(S(=O)(=O)N2C(=O)CCC2=O)cc1
[9]
  T/C: 106 % of control
[10]
  T/C: 105 % of control
dose: 200.0 mg/kg/injection, schedule: Q04DX003 (ip), vehicle: Klucel (hydroxypropylcellulose) (HPC)
  T/C: 120 % of control
[11]
  T/C: 100 % of control
[12]
  T/C: 110 % of control

## COc1cc(C(=O)NC2CCc3cc(OC)c(OC)c(OC)c3-c3ccc(OC)c(=O)cc32)cc(OC)c1OC (stereo unspecified)
dose: 1.25 mg/kg/injection, schedule: Q01DX009 (ip), vehicle: Klucel (hydroxypropylcellulose) (HPC)
  T/C: 119 % of control
dose: 2.5 mg/kg/injection, schedule: Q01DX009 (ip), vehicle: Klucel (hydroxypropylcellulose) (HPC)
  T/C: 124 % of control
dose: 10.0 mg/kg/injection, schedule: Q01DX009 (ip), vehicle: Klucel (hydroxypropylcellulose) (HPC)
  T/C: 152 % of control and 154 % of control
dose: 20.0 mg/kg/injection, schedule: Q01DX009 (ip), vehicle: Klucel (hydroxypropylcellulose) (HPC)
  T/C: 155 % of control and 163 % of control

## COc1ccc([B-]23OCC[N+]2(CNC(=O)c2ccccc2O)CCO3)cc1 (stereo unspecified)
dose: 50.0 mg/kg/injection, schedule: Q01DX005 (ip), vehicle: Klucel (hydroxypropylcellulose) (HPC)
  T/C: 103 % of control
dose: 100.0 mg/kg/injection, schedule: Q01DX005 (ip), vehicle: Klucel (hydroxypropylcellulose) (HPC)
  T/C: 112 % of control
dose: 200.0 mg/kg/injection, schedule: Q01DX005 (ip), vehicle: Klucel (hydroxypropylcellulose) (HPC)
  T/C: 105 % of control

## NC(=O)c1[nH]cnc1N
dose: 25.0 mg/kg/injection, schedule: Q01DX009 (ip), vehicle: saline
  T/C: 99 % of control
[6]
  T/C: 105 % of control
[7]
  T/C: 99 % of control
dose: 400.0 mg/kg/injection, schedule: Q01DX009 (ip), vehicle: saline
  T/C: 87 % of control

## O=C(O)c1ccc2c(c1Cl)C(=O)c1ccccc1C2=O
dose: 25.0 mg/kg/injection, schedule: Q04DX003 (ip), vehicle: Klucel (hydroxypropylcellulose) (HPC)
  T/C: 101 % of control
dose: 50.0 mg/kg/injection, schedule: Q04DX003 (ip), vehicle: Klucel (hydroxypropylcellulose) (HPC)
  T/C: 101 % of control
[9]
  T/C: 100 % of control

## O=S(=O)(Nc1nccs1)c1ccc(NCc2c3ccccc3nc3cc(Cl)ccc23)cc1
dose: 50.0 mg/kg/injection, schedule: Q01DX005 (ip), vehicle: saline with Tween-80
  T/C: 88 % of control
dose: 100.0 mg/kg/injection, schedule: Q01DX005 (ip), vehicle: saline with Tween-80
  T/C: 88 % of control
dose: 200.0 mg/kg/injection, schedule: Q01DX005 (ip), vehicle: saline with Tween-80
  T/C: 97 % of control

## Cc1cc(NC(=O)SCCOC(=O)COc2ccc(Cl)cc2)ccc1Cl
[10]
  T/C: 100 % of control
[11]
  T/C: 95 % of control
[12]
  T/C: 90 % of control

## CCCC(C(=O)OC)C(=O)C(C)c1nc2n(c1O)C(=N)N=N2 (stereo unspecified)
dose: 50.0 mg/kg/injection, schedule: Q01DX005 (ip), vehicle: saline
  T/C: 97 % of control
dose: 100.0 mg/kg/injection, schedule: Q01DX005 (ip), vehicle: saline
  T/C: 97 % of control
dose: 200.0 mg/kg/injection, schedule: Q01DX005 (ip), vehicle: saline
  T/C: 98 % of control

## CC(c1ccccc1)[P+](c1ccccc1)(c1ccccc1)c1ccccc1 (stereo unspecified)
dose: 0.78 mg/kg/injection, schedule: Q01DX009 (ip), vehicle: saline
  T/C: 112 % of control and 93 % of control
dose: 1.56 mg/kg/injection, schedule: Q01DX009 (ip), vehicle: saline
  T/C: 109 % of control and 118 % of control
dose: 3.13 mg/kg/injection, schedule: Q01DX009 (ip), vehicle: saline
  T/C: 118 % of control and 121 % of control

## Cn1cncc1/C=N\NC(N)=S
[1]
  T/C: 102 % of control
[2]
  T/C: 88 % of control
dose: 50.0 mg/kg/injection, schedule: Q04DX003 (ip), vehicle: saline
  T/C: 109 % of control
[5]
  T/C: 110 % of control
dose: 100.0 mg/kg/injection, schedule: Q04DX003 (ip), vehicle: saline
  T/C: 102 % of control
dose: 200.0 mg/kg/injection, schedule: Q04DX003 (ip), vehicle: saline
  T/C: 102 % of control
